Measured values from patent publication US5849782A, “Methods of inhibiting neurodegenerative diseases” (The General Hospital Corporation, priority 1996, dated 1998).

Columns and labels:
rats = assay: Striatal lesions produced by systemic 3-NP; format: in vivo, rat
Protocol: Systemic 3-NP treatment. 3-NP was diluted in water and adjusted to pH 7.4 with NaOH and administered at a dose of 10 mg/kg i.p. every 12 h. With this dosing regimen the animals become acutely ill after 4 to 5 days and show large striatal lesions. (Beal et al. (1993) J. Neurosci. 13:4181-4192.) At the same time points, 25 mg/kg of 7-NI dissolved in peanut oil at a concentration of 10 mg/ml (treated group) or vehicle alone (peanut oil, control group) was administered s.c.. Since there was variability in the times at which animals became ill, they were clinically examined 3 hours after the injections and 1 animal of each group was sacrificed when an animal was acutely ill, regardless of whether it was a vehicle treated control or a 7-NI treated animal. In an initial experiment 12 animals per group were studied. Following sacrifice, striatal lesion size was assessed by TTC staining.
In a second experiment, 5 animals per group were studied with the same treatment paradigm. Since the first experiment had shown by pairwise sacrifice that the vehicle treated animals always became ill before the 7-NI treated animals, a third experimental group of 5 animals was included to determine whether 7-NI treated animals become ill following administration of 3-NP. […] In this experiment animals were deeply anesthetized and transcardially perfused with ice cold saline, followed by phosphate buffered 4% paraformaldehyde (Beal et al. (1991) J. Neurosci. 11:1649-1659). Brains were sectioned at 50 μm intervals on a freezing microtome. Combined staining for Nissl substance and NADPH-diaphorase was performed. Adjacent sections were stained by immunohistochemistry with antibodies against ^8 -hydroxy-2deoxyguanosine.

MAO-B = target: T1, MAO-B (Mus musculus, UniProt Q8BW75); assay: MAO-B activity in forebrain mitochondrial fractions of treated mice; format: biochemical; conditions: four doses at 2-h intervals: deprenyl 10 mg/kg i.p. or 7-NI 50 mg/kg s.c.; vehicle 5.79±0.44
T1 construct: Crude mitochondrial preparations were obtain from the forebrains; from tissue; host or cells: mouse forebrain, crude mitochondrial fraction (P2 pellet on a discontinuous Ficoll gradient)
T1 sequence (Q8BW75 1-520): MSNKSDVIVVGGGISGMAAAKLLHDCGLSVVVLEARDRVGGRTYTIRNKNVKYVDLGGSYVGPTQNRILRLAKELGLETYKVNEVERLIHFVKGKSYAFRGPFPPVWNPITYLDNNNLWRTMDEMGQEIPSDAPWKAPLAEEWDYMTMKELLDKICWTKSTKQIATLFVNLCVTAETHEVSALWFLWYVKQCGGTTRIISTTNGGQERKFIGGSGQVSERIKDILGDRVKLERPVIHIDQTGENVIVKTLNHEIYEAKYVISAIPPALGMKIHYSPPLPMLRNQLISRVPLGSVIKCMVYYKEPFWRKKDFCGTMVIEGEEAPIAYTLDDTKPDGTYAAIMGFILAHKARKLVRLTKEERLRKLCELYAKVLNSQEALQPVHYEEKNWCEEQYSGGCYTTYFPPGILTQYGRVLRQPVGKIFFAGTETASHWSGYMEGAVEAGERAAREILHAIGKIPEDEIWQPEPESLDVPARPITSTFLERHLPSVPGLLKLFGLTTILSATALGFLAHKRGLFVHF

dopamine transporter = dopamine transporter (Mus musculus, UniProt Q61327); conditions: at 1, 10 and 100 μM; 0.13 μM [3H]-dopamine
dopamine transporter, sequence (Q61327 whole entry): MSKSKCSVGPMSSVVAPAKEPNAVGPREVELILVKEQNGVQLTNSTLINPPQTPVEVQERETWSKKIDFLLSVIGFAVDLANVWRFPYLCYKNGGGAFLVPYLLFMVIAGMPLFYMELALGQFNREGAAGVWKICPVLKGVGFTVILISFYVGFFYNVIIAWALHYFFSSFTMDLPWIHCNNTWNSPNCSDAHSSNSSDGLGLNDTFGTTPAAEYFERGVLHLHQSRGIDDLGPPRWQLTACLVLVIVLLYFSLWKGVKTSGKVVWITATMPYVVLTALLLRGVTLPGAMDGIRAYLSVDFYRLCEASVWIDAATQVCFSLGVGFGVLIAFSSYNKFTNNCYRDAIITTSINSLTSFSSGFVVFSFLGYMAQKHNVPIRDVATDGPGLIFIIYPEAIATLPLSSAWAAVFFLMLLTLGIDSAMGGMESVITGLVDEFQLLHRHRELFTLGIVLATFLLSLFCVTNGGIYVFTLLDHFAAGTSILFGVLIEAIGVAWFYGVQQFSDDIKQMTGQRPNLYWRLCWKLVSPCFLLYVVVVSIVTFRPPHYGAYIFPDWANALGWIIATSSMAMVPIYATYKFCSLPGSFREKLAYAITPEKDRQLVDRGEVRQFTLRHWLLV

Male Sprague-Dawley rats [1] = assay: Body temperature in rats under pentobarbital anesthesia; format: in vivo, rat; conditions: 1 h after 50 mg/kg 7-NI i.p., control 36.5±0.1, p<0.02
Protocol: Stereotaxic Lesion Technique. Male Sprague-Dawley rats (Charles River, Cambridge, Mass.) weighing 300-325 g were anesthetized with pentobarbital (50 mg/kg i.p.) and positioned in a David Kopf stereotaxic instrument with the incisor bar set at 3.3 mm below the intermural line. Malonate, NMDA, KA, and AMPA were dissolved in 0.1M phosphate-buffered saline (pH, 7.4). Intrastriatal injections were made with a 10 μl Hamilton syringe fitted with a 30 gauge blunt-tipped needle into the left striatum at the coordinates 0.5 mm anterior bregma, 2.6 mm lateral to the midline and 5 mm ventral to the dura. Injection volumes were 1 μl (3 μmol malonate). All injections were made over 1 min and the needle was left in place for an additional 1 min before being slowly withdrawn. 7-NI was dissolved and sonicated in peanut oil at a concentration of 10 mg/ml. 50 mg/kg of 7-NI were administered i.p. 30 min before striatal injections of malonate, NMDA, KA and AMPA. […] Nine to ten animals were used per group in each experiment.

mice = assay: Rectal temperature in mice; conditions: 7-NI 50 mg/kg
Protocol: To exclude the possibility that hypothermia may contribute to the protection, we maintained body temperature at 37.5° C. in controls, mice treated with four doses of MPTP at 20 mg/kg, and mice additionally treated with 7-NI (n=6 per group).

Male Sprague Dawley rats = assay: Salicylate hydroxyl trapping and 3-nitrotyrosine after systemic 3-NP; format: in vivo, rat; conditions: 3-NP 20 mg/kg i.p. every 12 h x3; 7-NI 50 mg/kg
Protocol: Salicylate assay and 3-nitrotyrosine measurements. The salicylate hydroxyl trapping method of Floyd et al. ((1984) supra, Cao et al. (1988) Neurosci. Lett. 88:233-238, and Hall et al. (1993) J. Neurochem. 60:588-594) was used for measuring ^.cndot. OH radicals in striatal tissue following i.p. administration of 3-NP. Male Sprague Dawley rats weighing 125-150 g (n-10 per group) were injected i.p. every 12 h for 3 times with either (i) saline, (ii) 20 mg/kg of 3-NP and peanut oil vehicle, or (iii) 20 mg/kg of 3-NP and 7-NI dissolved in peanut oil. […] Salicylate and its metabolites 2,3 and 2,5 dihydroxybenzoic acid (DHBA) were quantified by HPLC with 16-electrode electrochemical detection (Beal et al. (1990) supra). Salicylate, 2,3 and 2,5 DHBA, tyrosine and 3-nitrotyrosine were measured electrochemically by oxidation at 840, 240, 120 mV, 600 mV, and 840 mV, respectively. The data were expressed as the ratio of 2,3 and 2,5 DHBA to salicylate and 3-nitrotyrosine concentrations for differing brain concentrations of salicylate and tyrosine, which could be a consequence of impairment of the blood-brain barrier (salicylate) or neuronal loss during treatment (tyrosine).

Male Sprague-Dawley rats [2] = assay: Spontaneous striatal electrophysiological activity; conditions: 60 minutes after 50 mg/kg 7-NI; urethane anesthetized rats
Protocol: Electrophysiology. Four male Sprague-Dawley rats weighing 300 to 400 g were used for electrophysiological studies. Animals were anesthetized with urethane 1.5 g/kg i.p. and placed in a stereotaxic apparatus with their body temperatures maintained at 37° C. by a feedback heating pad. A 0.5×0.5 cm craniotomy was made and recording electrodes were placed in the anterior striatum using stereotaxic coordinates and aural monitoring. Following electrode placement the craniotomy was covered with 4% agar in saline and 30 min were allowed for stabilization before recordings were made. The spontaneous activity of multiple units were recorded extracellularly in the striatum, 3-4 mm anterior to the bregma and 3-4 mm lateral to the midline at a depth of 2.5-4.0 mm using commercially available tungsten microelectrodes (4 M.OMEGA. at 1 kHz, F. Haer, Inc.). […] Data acquisition and analysis of mean firing rate was performed using Discovery.COPYRGT., Experimenters WorkBench.COPYRGT. and Personal Scientific Workstation.COPYRGT. software (DataWave Technologies, Longmont, Colo.). We investigated the electrophysiological effects of the NMDA antagonist MK-801 and the NOS inhibitor 7-NI. […] Finally, spontaneous activity was recorded after the NMDA channel mediated activity was blocked by injection of MK-801 (4 mg/kg).

O=[N+]([O-])c1cccc2cn[nH]c12 [7-NI, 7-nitroindazole]
protection of striatum from 3-NP lesions (Nissl/NADPH-diaphorase histology) (rats; 3-NP 10 mg/kg every 12 h with 7-NI, n=5): completed protected | striatal lesions produced by 3-NP (TTC staining) (rats; 3-NP 10 mg/kg i.p. every 12 h, 7-NI 50 mg/kg every 12 h as printed): completely prevented | median accumulative 3-NP dose at first symptoms (rats; 12 h): 130 mg/kg | MAO-B activity in forebrain mitochondrial fraction after in vivo treatment (MAO-B): 5.69±0.40 nmol/min/mg of protein | inhibition of [3H]dopamine uptake into synaptosomes (dopamine transporter): did not inhibit | body temperature (Male Sprague-Dawley rats [1]): 35.9±0.26 ° c. | decrease in rectal temperature vs peanut oil controls (mice; 0.5 h after injection, p=0.03): 0.6 °C | rectal temperature (mice; 0.5 h after injection, peanut oil controls 36.8±0.2): 36.2±0.1 °C | change in rectal temperature vs peanut oil controls (mice; 1 h after injection): no significant decrease | 3-NP-induced increase of 2,3 and 2,5 DHBA (Male Sprague Dawley rats): significantly attenuated | 3-NP-induced increase of 3-nitrotyrosine in striatum (Male Sprague Dawley rats): significantly attenuated | mean spontaneous firing rate in striatum (Male Sprague-Dawley rats [2]): not significantly different from the baseline
